Data from patent publication US11957684B2, “Treatment of heavy menstrual bleeding associated with uterine fibroids” (Sumitomo Pharma Switzerland GmbH, priority 2016, dated 2024).
Values joined by “and” are separate entries in the source; they are usually repeats but may differ in a detail not shown here. Equal values may be shown once. Read-outs that look alike come from different tables or passages of the source.

System: endometriosis-associated pain
Type: in vivo, human
Protocol: Subjects assessed and recorded their own quality of life (QOL) using the EHP-30 once a month during the study visit. As used in the examples, the VAS score was evaluated using a 100 mm scale. For pain intensity, the scale was anchored by “no pain” (score of 0) and “pain as bad as you can imagine” (score of 100). […] The above items were evaluated using a patient diary that was distributed by the sponsor. Subjects filled out the patient diary every day during the treatment period or until early termination. If taking prohibited analgesics, subjects recorded this fact in the patient diary along with the accompanying pain symptoms before use of analgesics. As used in the examples, pain during menstruation and pelvic pain unrelated to menstruation were evaluated using scores on the M-B&B and B&B. The M-B&B scores were recorded by subjects on the patient diary supplied by the sponsor. Subjects filled out the patient diary every day during the treatment period or until early termination. If taking prohibited analgesics, subjects recorded this fact in the patient diary along with the accompanying pain symptoms before use of analgesics. The investigator or subinvestigator assessed each patient's pain through interviews and filled out a B&B once a month. The items that were assessed are shown below. The M-B&B score included: dysmenorrhea (severe, moderate, mild, no pain, or no menstruation); pelvic pain (severe, moderate, mild, or no pain); deep dyspareunia (severe, moderate, mild, no pain, or no intercourse). The B&B score included: dysmenorrhea (severe, moderate, mild, none, or not applicable); dyspareunia (severe, moderate, mild, none, or not applicable); pelvic pain (severe, moderate, mild, or none); pelvic tenderness (severe, moderate, mild, or none); and induration (severe, moderate, mild, or none). As used in the examples, the EHP-30 score was obtained by subjects assessing and recording their own QOL using the EHP-30 questionnaire.

[1] = 40 mg, end of 84 consecutive days

In the case of `CONC(=O)Nc1ccc(-c2sc3c(c2CN(C)C)c(=O)n(-c2ccc(OC)nn2)c(=O)n3Cc2c(F)cccc2F)cc1` [Compound 1, N-(4-(1-(2,6-difluorobenzyl)-5-((dimethylamino)methyl)-3-(6-methoxy-3-pyridazinyl)-2,4-dioxo-1,2,3,4-tetrahydrothieno[2,3-d]pyrimidin-6-yl)phenyl)-N′-methoxyurea], the “change from baseline in maximum VAS, dyspareunia” value (20 mg, end of treatment) is reported as −7.0±15.29 mm, the “change from baseline in maximum VAS, pelvic pain” value (20 mg, end of treatment) is reported as −33.3±30.14 mm and the “change from baseline in mean M-B&B score, deep dyspareunia” value (20 mg, end of treatment) is reported as −0.210±0.4936. The “change from baseline in mean M-B&B score, dysmenorrhea” value (20 mg, end of treatment) was −0.795±0.6490, the “change from baseline in mean VAS, dysmenorrhea” value (20 mg, end of treatment) was −19.825±20.4332 mm and the “change from baseline in mean VAS, dyspareunia” value (20 mg, end of treatment) was −3.553±11.5544 mm. For the same molecule, the “change from baseline in mean VAS, pelvic pain” value (20 mg, end of treatment) was −9.032 mm and −9.032±11.8432 mm, the “change from baseline in proportion of days with usage of pain killer” value (20 mg, end of treatment) was −7.36±14.585% and the “change in proportion of days without pain (M-B&B), deep dyspareunia” value (20 mg, end of treatment) was 18.04±47.892%. For the same molecule, the “change in proportion of days without pain (M-B&B), dysmenorrhea” value (20 mg, end of treatment) was 50.92±41.641%, the “change in proportion of days without pain (M-B&B), pelvic pain” value (20 mg, end of treatment) was 17.75±30.339% and the “change in proportion of days without pain (VAS), dysmenorrhea” value (20 mg, end of treatment) was 50.91±42.602%. The “change in proportion of days without pain (VAS), dyspareunia” value (20 mg, end of treatment) was 15.14±47.793%, the “change in proportion of days without pain (VAS), pelvic pain” value (20 mg, end of treatment) was 21.50±28.859% and the “mean VAS score, dysmenorrhea” value (20 mg, end of treatment) was 7.878±14.2406 mm. The “mean VAS score, dyspareunia” value (20 mg, end of treatment) was 6.363±13.1847 mm, the “mean VAS score, pelvic pain” value (20 mg, end of treatment) was 6.557±11.2902 mm and the “subjects who achieved amenorrhea” value (20 mg, end of treatment) was 54.0%. For the same molecule, the “subjects without pain in M-B&B score, dysmenorrhea” value (20 mg, end of treatment) was 61.0%, the “subjects without pain in M-B&B score, dyspareunia” value (20 mg, end of treatment) was 52.5% and the “subjects without pain in M-B&B score, pelvic pain” value (20 mg, end of treatment) was 34.0%. For the same molecule, the “subjects without pain in VAS score, dysmenorrhea” value (20 mg, end of treatment) was 59.0%, the “subjects without pain in VAS score, dyspareunia” value (20 mg, end of treatment) was 47.5% and the “subjects without pain in VAS score, pelvic pain” value (20 mg, end of treatment) was 20%. The “change from baseline in pelvic pain, dysmenorrhea, and dyspareunia in mean VAS” value (40 mg, 84 consecutive days) was −10.418±11.0171 mm, the “change from baseline in mean VAS, dysmenorrhea” value (40 mg, Day 1-28) was −10.979±14.8545 mm and the “change from baseline in mean VAS, dyspareunia” value (40 mg, Day 1-28) was 2.995±9.7916 mm. The “change from baseline in mean VAS, pelvic pain” value (40 mg, Day 1-28) was −3.761±7.8831 mm, the “mean VAS score, dysmenorrhea” value (40 mg, Day 1-28) was 19.452±19.1065 mm and the “mean VAS score, dyspareunia” value (40 mg, Day 1-28) was 9.522±13.6408 mm. For the same molecule, the “mean VAS score, pelvic pain” value (40 mg, Day 1-28) was 11.498±13.2341 mm, the “change from baseline in mean VAS, dysmenorrhea” value (40 mg, Day 57-84) was −30.094±17.2623 mm and the “change from baseline in mean VAS, dyspareunia” value (40 mg, Day 57-84) was −1.860±10.3161 mm. The “change from baseline in mean VAS, pelvic pain” value (40 mg, Day 57-84) was −10.537±11.0516 mm, the “mean VAS score, dysmenorrhea” value (40 mg, Day 57-84) was 0.569±2.5367 mm and the “mean VAS score, dyspareunia” value (40 mg, Day 57-84) was 4.126±7.9652 mm. For the same molecule, the “mean VAS score, pelvic pain” value (40 mg, Day 57-84) was 4.785±8.9162 mm, the “change from baseline in mean VAS, dysmenorrhea” value (40 mg, Day 141-168) was −31.210±17.7668 mm and the “change from baseline in mean VAS, dyspareunia” value (40 mg, Day 141-168) was −0.830±13.6774 mm. For the same molecule, the “mean VAS score, dysmenorrhea” value (40 mg, Day 141-168) was 0.430±2.3141 mm, the “mean VAS score, dyspareunia” value (40 mg, Day 141-168) was 3.531±9.6053 mm and the “mean VAS score, pelvic pain” value (40 mg, Day 141-168) was 2.979±6.1704 mm. The “change from baseline in EHP-30, Self-image” value (40 mg, Week 24) was −9.68±17.744, the “change from baseline in EHP-30, control & powerlessness” value (40 mg, Week 24) was −20.88±21.676 and the “change from baseline in EHP-30, emotional well-being” value (40 mg, Week 24) was −13.26±16.316. For the same molecule, the “change from baseline in EHP-30, pain” value (40 mg, Week 24) was −25.94±19.902, the “change from baseline in EHP-30, social support” value (40 mg, Week 24) was −10.28±17.109 and the “change from baseline in mean B&B score, dysmenorrhea” value (40 mg, Week 24) was −2.0±0.61. The “change from baseline in mean B&B score, dyspareunia” value (40 mg, Week 24) was −0.1±0.43, the “change from baseline in mean B&B score, pelvic pain” value (40 mg, Week 24) was −1.0±0.86 and the “change from baseline in mean B&B score, pelvic tenderness” value (40 mg, Week 24) was −1.0±0.92. For the same molecule, the “subjects without pain in B&B score, dysmenorrhea” value (40 mg, Week 24) was 94.3%, the “subjects without pain in B&B score, pelvic pain” value (40 mg, Week 24) was 58.6% and the “change from baseline in proportion of days without dysmenorrhea (M-B&B)” value (40 mg, end of 28 consecutive days) was 73.98±29.567%. For the same molecule, the “change from baseline in mean EHP-30 score” value [1] was −25.94±19.902, the “change from baseline in mean M-B&B score, deep dyspareunia” value [1] was −0.097±0.4325 and the “change from baseline in mean M-B&B score, dysmenorrhea” value [1] was −1.144±0.5014. For the same molecule, the “change from baseline in mean M-B&B score, pelvic pain” value [1] was −0.400±0.4491, the “change from baseline in proportion of days without deep dyspareunia (M-B&B)” value [1] was 8.15±43.20% and the “change from baseline in proportion of days without dysmenorrhea (VAS)” value [1] was 78.45±29.838%. For the same molecule, the “change from baseline in proportion of days without pelvic pain (M-B&B)” value [1] was 31.00±36.746%, the “change from baseline in proportion of days without pelvic pain (VAS)” value [1] was 36.59±34.849% and the “subjects without dysmenorrhea (B&B)” value [1] was 94.3%. For the same molecule, the “subjects without dyspareunia (M-B&B)” value [1] was 51.3%, the “change from baseline in maximum M-B&B score, dysmenorrhea” value (40 mg, end of treatment) was −2.0±0.76 and the “change from baseline in maximum M-B&B score, dyspareunia” value (40 mg, end of treatment) was −0.1±0.54. For the same molecule, the “change from baseline in maximum M-B&B score, pelvic pain” value (40 mg, end of treatment) was −1.0±0.89, the “change from baseline in maximum VAS, dysmenorrhea” value (40 mg, end of treatment) was −57.1±25.00 mm and the “change from baseline in maximum VAS, dyspareunia” value (40 mg, end of treatment) was −2.5±17.17 mm. For the same molecule, the “change from baseline in maximum VAS, pelvic pain” value (40 mg, end of treatment) was −49.7±26.47 mm, the “change from baseline in mean M-B&B score, deep dyspareunia” value (40 mg, end of treatment) was −0.097±0.4325 and the “change from baseline in mean M-B&B score, dysmenorrhea” value (40 mg, end of treatment) was −1.144±0.5014. The “change from baseline in mean M-B&B score, pelvic pain” value (40 mg, end of treatment) was −0.400±0.4491, the “change from baseline in mean VAS, dysmenorrhea” value (40 mg, end of treatment) was −29.513±17.5379 mm and the “change from baseline in mean VAS, dyspareunia” value (40 mg, end of treatment) was −0.925±12.0373 mm. The “change from baseline in mean VAS, pelvic pain” value (40 mg, end of treatment) was −11.924 mm and −11.924±11.2609 mm, the “change from baseline in mean score of amount of bleeding (0 to 5)” value (40 mg, end of treatment) was −2.207±0.8149 and the “change from baseline in proportion of days with usage of pain killer” value (40 mg, end of treatment) was −9.95±14.214%. The “change in proportion of days without pain (M-B&B), deep dyspareunia” value (40 mg, end of treatment) was 8.15±43.207%, the “change in proportion of days without pain (M-B&B), dysmenorrhea” value (40 mg, end of treatment) was 73.98±29.567% and the “change in proportion of days without pain (M-B&B), pelvic pain” value (40 mg, end of treatment) was 31.00±36.746%. For the same molecule, the “change in proportion of days without pain (VAS), dysmenorrhea” value (40 mg, end of treatment) was 78.45±29.838%, the “change in proportion of days without pain (VAS), dyspareunia” value (40 mg, end of treatment) was 4.50±40.796% and the “change in proportion of days without pain (VAS), pelvic pain” value (40 mg, end of treatment) was 36.59±34.849%. The “mean VAS score, dysmenorrhea” value (40 mg, end of treatment) was 0.918±4.3438 mm, the “mean VAS score, dyspareunia” value (40 mg, end of treatment) was 4.842±9.1145 mm and the “mean VAS score, pelvic pain” value (40 mg, end of treatment) was 3.335±6.4059 mm. For the same molecule, the “subjects who achieved amenorrhea” value (40 mg, end of treatment) was 91.3%, the “subjects without pain in M-B&B score, dysmenorrhea” value (40 mg, end of treatment) was 93.2% and the “subjects without pain in M-B&B score, dyspareunia” value (40 mg, end of treatment) was 51.3%. The “subjects without pain in M-B&B score, pelvic pain” value (40 mg, end of treatment) was 52.4%, the “subjects without pain in VAS score, dysmenorrhea” value (40 mg, end of treatment) was 93.2% and the “subjects without pain in VAS score, dyspareunia” value (40 mg, end of treatment) was 48.7%. The “subjects without pain in VAS score, pelvic pain” value (40 mg, end of treatment) was 49.5% and 50%.
